Results on 43 substances are retold here after patent publication US20240368668A1, “SUBSTRATES AND BIOMARKERS OF ADAMTS7” (The Broad Institute, Inc., priority 2021, published 2024).

Square brackets hold non-standard residues; d marks the D form. Ends that are not written are not given here. Met(O) = CS(=O)CC[C@H](N)C(=O)O

In one experiment the test system is mouse ADAMTS7. Kind of experiment: TMT10 TAILS N-terminomics, SMC2 experiment (process replicates, trypsin/AspN digest). The format is cell-based. As to conditions: SMC2_TAILS HC; log fold change of N-terminal peptide, Ad-mADAMTS7 WT over EQ. The gist of the method: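 Full-length mouse ADAMTS7 (WT or E373Q mutant, C-terminal 3xFLAG) or luciferase was transduced via adenovirus, 50 MOI, into HCA-SMC (SMC1, SMC2) or HUVEC. SMC1: pooled media, technical triplicates 400 ug; SMC2: process triplicates 300 ug; HUVEC: process triplicates 200 ug, bFGF2 10 ng/ml.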
For the substance “LOXL1_218 (AVASAGVIYPYQPR; listed as Homo sapiens)”, the logFC.mWT.over.mEQ was found to be 1.83.
With “LOXL2_45 (HQPQAPANVAKIQLR; listed as Homo sapiens)”, the logFC.mWT.over.mEQ is recorded as 2.51.
Consider “LTBP2_79 (VAGLQPVER; listed as Homo sapiens)”, for which the logFC.mWT.over.mEQ turned out to be 1.62.
The substance “LTBP2_250 (SAAGEGTLAR; listed as Homo sapiens)” came in with a logFC.mWT.over.mEQ of 2.70.
“LTBP2_290 (QHVGLSR; listed as Homo sapiens)” showed a logFC.mWT.over.mEQ of 3.05.
Substance “LTBP2_502 (LVENSVETRPPPWLPASPGHSLW; listed as Homo sapiens)” had a logFC.mWT.over.mEQ of 2.85.
As to “LTBP3_103 (LTGSGFR; listed as Homo sapiens)”, the logFC.mWT.over.mEQ was 5.72.
The substance “LTBP3_208 (FLVPLGPGQISA; listed as Homo sapiens)” came in with a logFC.mWT.over.mEQ of 1.53.
Regarding “MAP4_815 (AVASTGPSSR; listed as Homo sapiens)”, the logFC.mWT.over.mEQ was found to be 1.70.
“MAP4_816 (VASTGPSSR; listed as Homo sapiens)” gave a logFC.mWT.over.mEQ of 2.51.
The substance “MMP1_100 (FVLTEGNPR; listed as Homo sapiens)” yielded a logFC.mWT.over.mEQ of 2.39.
As to “MMP1_185 (FQPGPGIGG; listed as Homo sapiens)”, the logFC.mWT.over.mEQ amounted to 1.46.
“NBEA_1892 (LEKVAPLLR; listed as Homo sapiens)” returned a logFC.mWT.over.mEQ of 2.12.
As to “NID1_360 (FHQQHPQVI; listed as Homo sapiens)”, the logFC.mWT.over.mEQ is listed as 2.69.
Still for that read-out and setting: under “NID2_291 (HSSVPLGR; listed as Homo sapiens)” stands 3.16.
The substance “NID2_951 (YAYPGAR; listed as Homo sapiens)” came in with a logFC.mWT.over.mEQ of 2.80.
On to “PAK4_141 (HSEAGGGSG; listed as Homo sapiens)”, for which the logFC.mWT.over.mEQ amounted to 1.78.
The substance “PLIN3_75 (VSGAQPILSKL; listed as Homo sapiens)” came in with a logFC.mWT.over.mEQ of 2.25.
Still for that read-out and setting: under “POSTN_727 (IITGPEIKYTR; listed as Homo sapiens)” stands 2.60; under “PPP1R18_295 (LSETLTR; listed as Homo sapiens)”, 2.32.
For the substance “PTPRF_1859 (MRYEGVVDMFQTVKTLR; listed as Homo sapiens)”, the logFC.mWT.over.mEQ worked out at 2.59.
Still for that read-out and setting: next, “QSOX1_210 (HKGVAVR; listed as Homo sapiens)”: 1.69; “SHC2_267 (VAKDPINQRACHIL; listed as Homo sapiens)”: 1.85; “SPOCK1_27 (LAGGAGPNHGNFL; listed as Homo sapiens)”: 2.69.
On to “SRGN_59 (LLPGESNKIPR; listed as Homo sapiens)”, for which the logFC.mWT.over.mEQ worked out at 3.66.
On to “TNPO2_744 (VQ[Met(O)]VLNNLVEII[code n]RP[code n]TPKTLLE; listed as Homo sapiens)”, for which the logFC.mWT.over.mEQ is 4.02.
On the same count and under the same terms, next, “TNS1_236 (QEGLAGYQR; listed as Homo sapiens)”: 2.08; “TRGC2_86 (HRCIVRHENNK; listed as Homo sapiens)”: 2.93.
“TTN_5975 (VKEPPVEFTKPL; listed as Homo sapiens)” showed a logFC.mWT.over.mEQ of 3.34.
“VAT1_42 (AASPPLLR; listed as Homo sapiens)” registered a logFC.mWT.over.mEQ of 2.95.
The same measure, in the same setting: next, “VIM_314 (QESTEYR; listed as Homo sapiens)”: 3.28; “VIM_333 (LKGTNESLER; listed as Homo sapiens)”: 3.84.

The experiment is the same for the next values; noted with them: SMC2_TAILS HC; log fold change, mWT over mEQ.
“COL1A2_80 (QYDGKGVGLGPGPMGLMGPR; listed as Homo sapiens)”: the logFC.mWT.over.mEQ amounted to 1.15.
In turn, “COL1A2_270 (VGNAGPAGPAGPR; listed as Homo sapiens)” displayed a logFC.mWT.over.mEQ of 3.47.
In turn, “COL1A2_305 (LTGAKGAAGLPGVAGAPGLPGPR; listed as Homo sapiens)” returned a logFC.mWT.over.mEQ of 1.92.
On to “COL1A2_630 (VGTAGPSGPSGLPGER; listed as Homo sapiens)”, for which the logFC.mWT.over.mEQ came out at 2.33.
For the substance “COL1A2_866 (LLGAPGILGLPGSR; listed as Homo sapiens)”, the logFC.mWT.over.mEQ stood at 3.22.
Same read-out and setting: under “COL1A2_960 (AGAPGPHGPVGPAGKHGNR; listed as Homo sapiens)” stands 2.87.
For the substance “COL1A2_1028 (LQGLPGIAGHHGDQGAPGSVGPAGPR; listed as Homo sapiens)”, the logFC.mWT.over.mEQ is 1.98.
“COL4A2_71 (YNGPPGLQGFPGLQGR; listed as Homo sapiens)” had a logFC.mWT.over.mEQ of 1.70.
Substance “COL18A1_1505 (LQPPVVQLHDSNPYPR; listed as Homo sapiens)” returned a logFC.mWT.over.mEQ of 1.47.

Still in this experiment, the particulars now being: log fold change, ADAMTS7 WT over EQ.
As to “SERBP1_56 (QAAAQTNSNAAGKQLR; listed as Homo sapiens)”, the logFC.mWT.over.mEQ is given as 4.06.
In the case of “SRGN_59 (LLPGESNKIPR; listed as Homo sapiens)”, the logFC.mWT.over.mEQ is reported as 4.33.
Regarding “THBS2_290 (LSENLKR; listed as Homo sapiens)”, the logFC.mWT.over.mEQ was determined as 4.05.
On the same count and under the same terms, next, “VIM_314 (QESTEYR; listed as Homo sapiens)”: 2.60.
“VIM_333 (LKGTNESLER; listed as Homo sapiens)” yielded a logFC.mWT.over.mEQ of 4.39.
